A word on the IC50: it is the point on the concentration scale where inhibition reaches its midpoint.

The subject of data set [1] is Cryptic cells of the large intestine. Description: Growth/vitality of primary cryptic cells of the large intestine (crystal violet, MTT-test, 4 days treatment). Type of data set: cell-based. An excerpt:
Cryptic cells of the large intestine were isolated according to the method of Booth et al. (1995) with slight modifications. The removed large intestine was cut into pieces, the parts were finally cut after several-fold washing and digested with collagenase and dispase. Subsequently, the larger tissue pieces remaining in the suspension were sedimented, the supernatant was decanted and stored. The pellet was digested again under vigorous shaking with medium in order to release additional cryptic cells. After sedimentation, the supernatant was poured off again, combined with the first fraction and the cryptic cells were centrifuged at 50×g. After a further washing step, the centrifuge cryptic cells were suspended in culture medium and seeded at a density of 800 cells per well in 24-well-cultured dishes which were previously coated with collagen. The cells were incubated at 37° C. in a saturated water vapour atmosphere with 92.5% air and 7.5% CO2. […]
The growth of the culture was photometrically quantified after staining with crystal violet as a measure for the cell number and the vitality of the cells was determined with the MTT-test whose reaction depends on living cells with active mitochondria. Based on dose response curves, the IC50-values were calculated which are also used in the following Table 3 for characterization of the individual substance activity: […]

The subject of the next data set is THP-1 cells. Kind of data set: Growth inhibition of THP-1 human leukaemia cells (WST-1 reagent, four days incubation). Type of data set: cell-based. The conditions noted are these: for IC50: Homo sapiens; for effect on the growth-inhibiting effect of K22.097: THP-1 cells, summary of Table 1. Here is the method: THP-1 cells derived from a human monocytic leukaemia plated at a density of 200,000 cells/ml in 96-well plastic dishes. Cultivation occurred in RPMI 1640 nutrient medium with 10% foetal calf serum (FCS) in a tissue culture incubator with a gas mixture of 5% CO2 and 95% air at a temperature of 37° C. For the individual concentrations and the controls without test substances as well as for the background with nutrient medium but without cells, three-fold batches were done for each. After four days of substance incubation 20 μl WST-1 reagent (Boehringer Mannheim) was respectfully pipetted in each individual well. After 30 to 60 minute incubation in the tissue culture incubator at 37° C. and 5% CO2, the light extinction was measured in an ELISA reader at 450 nm wave length. The backgrounds were each subtracted from the typical measured valves. (The IC50-values (defined as that concentration in which the cell growth was inhibited by 50%) was taken from the dose-response curves and given as a comparative measurement for the activity of the test compounds.
Furthermore, the anti-tumor substance Nr.159 with the internal label K22.175 according to the publication PCT/EP97/03245=WO97/48696 in the form of N-[4-(1-benzoylpiperidin-4-yl)-butyl]-3-(pyridin-3-yl)-acrylamide synthesized by the applicant was included in the experimental examinations. The results obtained therefrom confirm the above described finding on the useful effect according to the invention of the vitamin PP compounds.
In general terms: Tetrazolium dyes change colour on reduction, which living cells bring about.

The next data set concerns NMRI mice. The protocol: Parallel to this, 500 mg/kg nicotinamide was simultaneously intraperitoneally administered each to the individual dosage groups. 7 days after the beginning of treatment, the blood picture of the individual animals was examined.
The next data set relates to lymphocytes. Kind of data set: Vitality of freshly isolated spleen lymphocytes (flow cytometry, propidium iodide / 3,3'-dihexyloxacarbocyanin iodide, 2 days). The class given is cell-based, Swiss mouse. The conditions noted are these: Mus musculus, Lymphocyte. An excerpt: Many cytostatic agents and radiation therapies as well have a cytcotoxic effect not only on tumor cells but also on the blood cell system. This leads to a weakening of the immune defence which can lead to life threatening infections. In addition, this can result in a so-called tumor lyse syndrome which can, lead to the death of the patient by the relatively quick death of large cell masses. In order to test the possibility for a therapeutical use of nicotinic acid and/or nicotinamide for preventing such life threatening conditions by massive cell death, the effect of the substance was tested on freshly isolated lymphocytes as follows:
The spleen of a Swiss mouse served as a lymphocyte source.
The lymphocyte population was isolated from the spleen cell suspension over a ficoll gradient and taken up in IMEM-ZO culture medium with 0,1% dextran 70,000 and 2% foetal calf serum. […] Subsequently, 10,000 cells per each sample were measured on a flow-through cytometer and the percentage amount of vital cells in the population was determined. By means of the dose-response curves, IC50-values were calculated which were also employed in the following Tables for the characterization of the individual substances: […]
(Flow cytometry measures light scatter and fluorescence of single cells or particles in a stream.)

Like-named read-outs stand apart in the source and are kept apart here. Bounds are passed on as bounds.

Take `O=C(CCc1cccnc1)NCCCCC1CCN(C(c2ccccc2)c2ccccc2)CC1` [K22.097, N-[4-(1-diphenylmethylpiperidin-4-yl)-butyl]-3-(pyridin-3-yl)-propionamide]: the IC50 in data set [1] (read-out: IC50-Value for K22.097, primary intestine cryptic cells, + 1 mM nicotinamide) is greater than 10000 nM; in data set [1] (read-out: IC50-Value for K22.097, primary intestine cryptic cells, K22.097 alone), 100 nM; in the data set on THP-1 cells (THP-1, read-out: IC50-Value for K22.097, THP-1 cells, + 0.1 mM nicotinic acid), greater than 10000 nM; with THP-1 cells (THP-1, read-out: IC50-Value for K22.097, THP-1 cells, + 1 mM nicotinamide) it was greater than 10000 nM; in the data set with THP-1 cells (THP-1, read-out: IC50-Value for K22.097, THP-1 cells, K22.097 alone) it was 10 nM; in the data set on lymphocytes (read-out: IC50-Value for K22.097, mouse spleen lymphocytes, + 10 mM nicotinamide) it was greater than 1000 nM. The IC50 with lymphocytes (read-out: IC50-Value for K22.097, mouse spleen lymphocytes, K22.097 alone) was 1 nM. Moreover, the Leukocyte number with NMRI mice (2 × 100 mg/kg K22.097 orally + 2 × 500 mg/kg nicotinamide intraperitoneally, day 7) is 6,900 per μl; in the data set on NMRI mice (2 × 100 mg/kg K22.097 orally over 4 days, blood picture 7 days after beginning of treatment) it was 1,100 per μl; in the data set with NMRI mice (2 × 120 mg/kg K22.097 orally + 2 × 500 mg/kg nicotinamide intraperitoneally, day 7), 5,900 per μl; in the data set with NMRI mice (2 × 120 mg/kg K22.097 orally over 4 days, blood picture 7 days after beginning of treatment), 500 per μl.
As for `O=C(C=Cc1cccnc1)NCCCCC1CCN(C(=O)c2ccccc2)CC1` [K22.175, N-[4-(1-benzoylpiperidin-4-yl)-butyl]-3-(pyridin-3-yl)-acrylamide], the IC50 with THP-1 cells (THP-1, THP-1 cells, + 0.1 mM nicotinic acid, read-out: IC50-Value for K22.175) was greater than 30 nM; with THP-1 cells (THP-1, THP-1 cells, + 1 mM nicotinamide, read-out: IC50-Value for K22.175) it was greater than 30 nM; in the data set with THP-1 cells (THP-1, THP-1 cells, K22.175 alone, read-out: IC50-Value for K22.175), 0.5 nM.
As for `NC(=O)c1cccnc1` [nicotinamide, reference compound], the “effect on the growth-inhibiting effect of K22.097” value in the data set with THP-1 cells was “abrogated”. Also, in the data set on NMRI mice (mouse, in vivo, ip, 500 mg/kg), the Leukocyte number is given as 4,800 per μl.
Consider `O=C(O)c1cccnc1` [nicotinic acid, reference compound], for which the “effect on the growth-inhibiting effect of K22.097” value in the data set with THP-1 cells is on record as “abrogated”.

For the origin of these results see patent US20100227896A1, “USE OF VITAMIN PP COMPOUNDS” (ASTELLAS DEUTSCHLAND GMBH, priority 1998, published 2010).
